Measured values from ChEMBL document CHEMBL4622979, “Non-rigid Diarylmethyl Analogs of Baloxavir as Cap-Dependent Endonuclease Inhibitors of Influenza Viruses” (J Med Chem, 2020).

Experiments:
[1] = Cmax in CD1 mouse blood assessed as baloxavir acid level at 15 mg/kg, po administered as single dose measured up to 24 hrs by LC-MS/MS analysis; format: ADME, organism-based; set-up: dose 15 mg/kg, route oral; details: in vivo
[2] = AUCinfinity in CD1 mouse plasma assessed as baloxavir acid level at 15 mg/kg, po administered as single dose measured up to 24 hrs by LC-MS/MS analysis; format: ADME, organism-based; set-up: dose 15 mg/kg, route oral, time infinity; details: in vivo
[3] = Elimination rate constant in CD1 mouse lung assessed as baloxavir acid level at 15 mg/kg, po administered as single dose measured up to 24 hrs by LC-MS/MS analysis; format: ADME, organism-based; details: in vivo
[4] = Tmax in CD1 mouse heart assessed as baloxavir acid level at 15 mg/kg, po administered as single dose measured up to 24 hrs by LC-MS/MS analysis; format: ADME, organism-based; details: in vivo
[5] = Cmax in CD1 mouse plasma assessed as baloxavir acid level at 15 mg/kg, po administered as single dose by LC-MS/MS analysis; format: ADME, organism-based; set-up: dose 15 mg/kg, route oral; details: in vivo
[6] = Elimination rate constant in CD1 mouse spleen assessed as baloxavir acid level at 15 mg/kg, po administered as single dose measured up to 24 hrs by LC-MS/MS analysis; format: ADME, organism-based; details: in vivo
[7] = MRTlast in CD1 mouse muscle assessed as baloxavir acid level at 15 mg/kg, po administered as single dose measured up to 24 hrs by LC-MS/MS analysis; format: ADME, organism-based, Muscle tissue; details: in vivo
[8] = Acute toxicity in CD1 mouse assessed as effect on water consumption at 2000 mg/kg, po measured for 2 weeks; format: organism-based; details: in vivo, 336 h
[9] = Tmax in CD1 mouse spleen assessed as (12aR)-12-(Diphenylmethyl)-7-hydroxy-3,4,12,12a-tetrahydro-1H-[1,4]oxazino[3,4-c]pyrido[2,1-f ][1,2,4]triazine-6,8-dione level at 15 mg/kg, po administered as single dose measured up to 24 hrs by LC-MS/MS analysis; format: ADME, organism-based; details: in vivo
[10] = Half life in CD1 mouse trachea assessed as (12aR)-12-(Diphenylmethyl)-7-hydroxy-3,4,12,12a-tetrahydro-1H-[1,4]oxazino[3,4-c]pyrido[2,1-f ][1,2,4]triazine-6,8-dione level at 15 mg/kg, po administered as single dose measured up to 24 hrs by LC-MS/MS analysis; format: ADME, organism-based; details: in vivo
[11] = Ratio of AUClast in CD1 mouse lung to plasma assessed as (12aR)-12-(Diphenylmethyl)-7-hydroxy-3,4,12,12a-tetrahydro-1H-[1,4]oxazino[3,4-c]pyrido[2,1-f ][1,2,4]triazine-6,8-dione level at 15 mg/kg, po administered as single dose by LC-MS/MS analysis; format: ADME, organism-based; details: other tissue
[12] = Cmax in CD1 mouse plasma assessed as (12aR)-12-(Diphenylmethyl)-7-hydroxy-3,4,12,12a-tetrahydro-1H-[1,4]oxazino[3,4-c]pyrido[2,1-f ][1,2,4]triazine-6,8-dione level at 15 mg/kg, po administered as single dose measured up to 24 hrs by LC-MS/MS analysis; format: ADME, organism-based; set-up: dose 15 mg/kg, route oral; details: in vivo
[13] = Tmax in CD1 mouse lung assessed as (12aR)-12-(Diphenylmethyl)-7-hydroxy-3,4,12,12a-tetrahydro-1H-[1,4]oxazino[3,4-c]pyrido[2,1-f ][1,2,4]triazine-6,8-dione level at 15 mg/kg, po administered as single dose measured up to 24 hrs by LC-MS/MS analysis; format: ADME, organism-based; details: in vivo
[14] = AUCinfinity in CD1 mouse muscle assessed as (12aR)-12-(Diphenylmethyl)-7-hydroxy-3,4,12,12a-tetrahydro-1H-[1,4]oxazino[3,4-c]pyrido[2,1-f ][1,2,4]triazine-6,8-dione level at 15 mg/kg, po administered as single dose measured up to 24 hrs by LC-MS/MS analysis; format: ADME, organism-based, Muscle tissue; set-up: dose 15 mg/kg, route oral, time infinity; details: in vivo
[15] = AUCinfinity in CD1 mouse liver assessed as (12aR)-12-(Diphenylmethyl)-7-hydroxy-3,4,12,12a-tetrahydro-1H-[1,4]oxazino[3,4-c]pyrido[2,1-f ][1,2,4]triazine-6,8-dione level at 15 mg/kg, po administered as single dose measured up to 24 hrs by LC-MS/MS analysis; format: ADME, organism-based; set-up: dose 15 mg/kg, route oral, time infinity; details: in vivo
[16] = Cmax in CD1 mouse spleen assessed as (12aR)-12-(Diphenylmethyl)-7-hydroxy-3,4,12,12a-tetrahydro-1H-[1,4]oxazino[3,4-c]pyrido[2,1-f ][1,2,4]triazine-6,8-dione level at 15 mg/kg, po administered as single dose measured up to 24 hrs by LC-MS/MS analysis; format: ADME, organism-based; set-up: dose 15 mg/kg, route oral; details: in vivo
[17] = AUCinfinity in CD1 mouse spleen assessed as (12aR)-12-(Diphenylmethyl)-7-hydroxy-3,4,12,12a-tetrahydro-1H-[1,4]oxazino[3,4-c]pyrido[2,1-f ][1,2,4]triazine-6,8-dione level at 15 mg/kg, po administered as single dose measured up to 24 hrs by LC-MS/MS analysis; format: ADME, organism-based; set-up: dose 15 mg/kg, route oral, time infinity; details: in vivo
[18] = MRTlast in CD1 mouse brain assessed as (12aR)-12-(Diphenylmethyl)-7-hydroxy-3,4,12,12a-tetrahydro-1H-[1,4]oxazino[3,4-c]pyrido[2,1-f ][1,2,4]triazine-6,8-dione level at 15 mg/kg, po administered as single dose measured up to 24 hrs by LC-MS/MS analysis; format: ADME, organism-based; details: in vivo
[19] = MRTlast in CD1 mouse lung assessed as (12aR)-12-(Diphenylmethyl)-7-hydroxy-3,4,12,12a-tetrahydro-1H-[1,4]oxazino[3,4-c]pyrido[2,1-f ][1,2,4]triazine-6,8-dione level at 15 mg/kg, po administered as single dose measured up to 24 hrs by LC-MS/MS analysis; format: ADME, organism-based; details: in vivo
[20] = Cmax in CD1 mouse heart assessed as (12aR)-12-(Diphenylmethyl)-7-hydroxy-3,4,12,12a-tetrahydro-1H-[1,4]oxazino[3,4-c]pyrido[2,1-f ][1,2,4]triazine-6,8-dione level at 15 mg/kg, po administered as single dose measured up to 24 hrs by LC-MS/MS analysis; format: ADME, organism-based; set-up: dose 15 mg/kg, route oral; details: in vivo
[21] = Ratio of free drug level in CD1 mouse blood assessed as (12aR)-12-(Diphenylmethyl)-7-hydroxy-3,4,12,12a-tetrahydro-1H-[1,4]oxazino[3,4-c]pyrido[2,1-f ][1,2,4]triazine-6,8-dione level at 50 mg/kg, po to EC50 for antiviral activity against Influenza A/California/04/2009 (H1N1)pdm09 infected in MDCK cells; format: ADME, organism-based; details: in vivo
[22] = Elimination rate constant in CD1 mouse kidney assessed as (12aR)-12-(Diphenylmethyl)-7-hydroxy-3,4,12,12a-tetrahydro-1H-[1,4]oxazino[3,4-c]pyrido[2,1-f ][1,2,4]triazine-6,8-dione level at 15 mg/kg, po administered as single dose measured up to 24 hrs by LC-MS/MS analysis; format: ADME, organism-based; details: in vivo
[23] = Elimination rate constant in CD1 mouse heart assessed as (12aR)-12-(Diphenylmethyl)-7-hydroxy-3,4,12,12a-tetrahydro-1H-[1,4]oxazino[3,4-c]pyrido[2,1-f ][1,2,4]triazine-6,8-dione level at 15 mg/kg, po administered as single dose measured up to 24 hrs by LC-MS/MS analysis; format: ADME, organism-based; details: in vivo
[24] = AUClast in CD1 mouse plasma assessed as (12aR)-12-(Diphenylmethyl)-7-hydroxy-3,4,12,12a-tetrahydro-1H-[1,4]oxazino[3,4-c]pyrido[2,1-f ][1,2,4]triazine-6,8-dione level at 15 mg/kg, po administered as single dose by LC-MS/MS analysis; format: ADME, organism-based; set-up: dose 15 mg/kg, time 0 - last, route oral; details: in vivo

Compound `COC(=O)OCOc1c2n(ccc1=O)N([C@@H]1c3ccccc3SCc3c1ccc(F)c3F)[C@@H]1COCCN1C2=O` [BALOXAVIR MARBOXIL] has a Cmax [1] of 215 ng/g, an AUC [2] of 558 ng·h/mL and a Kel [3] of 0.2 h⁻¹. For the same compound, the Tmax [4] was 2 h, the Cmax [5] was 141 ng/mL and the Kel [6] was 0.2 h⁻¹. The MRTlast [7] was 3.35 h.

With `COC(=O)OCOc1c2n(ccc1=O)N(C(c1ccccc1)c1ccccc1)[C@@H]1COCCN1C2=O` the Activity [8] was “Non-Toxic”, the Tmax [9] was 0.5 h and the t1/2 [10] was 4.91 h. For the same compound, the “Ratio AUC” value [11] was 3, the Cmax [12] was 1251 ng/mL and the Tmax [13] was 0.5 h. For the same compound, the AUC [14] was 7693 ng·h/g, the AUC [15] was 34838 ng·h/g and the Cmax [16] was 1119 ng/g. The AUC [17] was 4713 ng·h/g, the MRTlast [18] was 3.33 h and the MRTlast [19] was 1.7 h. The Cmax [20] was 2537 ng/g, the Ratio [21] was 44 and the Kel [22] was 0.27 h⁻¹. The Kel [23] was 0.41 h⁻¹ and the AUClast [24] was 3935 ng·h/mL.
